Literature values, collected in patent US6110955A, “Metabolically stabilized oxyalkylene esters and uses thereof” (Beacon Laboratories, Inc., priority 1997, dated 2000).

Key:
[1] = test system: mitochondrial β-oxidation of fatty acids; conditions: cited from earlier work
[2] = test system: primary and immortalized cell lines; conditions: cited from earlier work

| Compound | mitochondrial β-oxidation of fatty acids [1] | expression of a reporter gene [2] |
| --- | --- | --- |
| CN(C)C1C(=O)C(C(N)=O)=C(O)C2(O)C(=O)C3=C(O)c4c(O)cccc4C(C)(O)C3CC12 (stereo not shown) [tetracycline] | decrease mitochondrial β-oxidation of fatty acids | – |
| O=C(O)CCCCCCNC1c2ccccc2CCc2ccccc21 [aminetepine] | decrease mitochondrial β-oxidation of fatty acids | – |
| CN1c2ccccc2C(NCCCCCCC(=O)O)c2ccc(Cl)cc2S1(=O)=O (stereo not shown) [tianeptine] | decrease mitochondrial β-oxidation of fatty acids | – |
| CCCC(=O)OCC(COC(=O)CCC)OC(=O)CCC [Tributyrin] | – | enhance the expression of a reporter gene in primary and immortalized cell lines |
| O=C(O)c1ccccc1O [salicylic acid] | decrease mitochondrial β-oxidation of fatty acids | – |
| CC(C)Cc1ccc(C(C)C(=O)O)cc1 (stereo not shown) [ibuprofen] | decrease mitochondrial β-oxidation of fatty acids | – |
| CCCC(CCC)C(=O)O [valproic acid] | decrease mitochondrial β-oxidation of fatty acids | – |
